Test results as given in US10301304B2, “Selective inhibitor of phosphatidylinositol 3-kinase-gamma” (VERTEX PHARMACEUTICALS INCORPORATED, priority 2013, dated 2019).
Marks after values point to notes of the source that are not given here.

What was measured:
Assay type in all cases: in vitro ADME
CYP2D6 = CYP2D6 (Homo sapiens, UniProt P10635); experiment: Inhibition of CYP Enzymes in Human Liver Microsomes; set-up: from tissue; host or cells: human liver microsomes; details: CYP2D6, 10 μM Bufuralol
Method: (§1) Inhibition assays were conducted with selective CYP probes for each CYP enzyme at specific concentrations of substrate (close to its dissociation constant (Km) value). Compound 1 was a moderate inhibitor of CYP 1A2, 2B6 and 2C8; […]

CYP2C19 = CYP2C19 (Homo sapiens, UniProt P33261); experiment: as above; set-up: from tissue; host or cells: human liver microsomes; details: CYP2C19, 30 μM S-Mephenytoin
Method: as §1

CYP2B6 = CYP2B6 (Homo sapiens, UniProt P20813); experiment: as above; set-up: from tissue; host or cells: human liver microsomes; details: CYP2B6, 100 μM Bupropion
Method: as §1

CYP2C8 = CYP2C8 (Homo sapiens, UniProt P10632); experiment: as above; set-up: from tissue; host or cells: human liver microsomes; details: CYP2C8, 2.5 μM Paclitaxel
Method: as §1

CYP2C9 = CYP2C9 (Homo sapiens, UniProt P11712); experiment: as above; set-up: from tissue; host or cells: human liver microsomes; details: CYP2C9, 2.5 μM Diclofenac
Method: as §1

CYP1A2 [1] = molecular target: CYP1A2 (Homo sapiens, UniProt P05177); experiment: as above; set-up: from tissue; host or cells: human liver microsomes; details: CYP1A2, 30 μM Phenacetin
Method: as §1

CYP1A2 [2] = experiment: CYP1A2 Induction in Human Hepatocytes
Method: CYP activity was determined by monitoring metabolite formation of specific CYP probe substrates (phenacetin for CYP1A2 and testosterone for CYP3A4) using LC-MS/MS. CYP messenger ribonucleic acid (mRNA) was analyzed by RT-PCR to confirm CYP induction potential.

Chain of CYP2C19 (P33261 whole entry): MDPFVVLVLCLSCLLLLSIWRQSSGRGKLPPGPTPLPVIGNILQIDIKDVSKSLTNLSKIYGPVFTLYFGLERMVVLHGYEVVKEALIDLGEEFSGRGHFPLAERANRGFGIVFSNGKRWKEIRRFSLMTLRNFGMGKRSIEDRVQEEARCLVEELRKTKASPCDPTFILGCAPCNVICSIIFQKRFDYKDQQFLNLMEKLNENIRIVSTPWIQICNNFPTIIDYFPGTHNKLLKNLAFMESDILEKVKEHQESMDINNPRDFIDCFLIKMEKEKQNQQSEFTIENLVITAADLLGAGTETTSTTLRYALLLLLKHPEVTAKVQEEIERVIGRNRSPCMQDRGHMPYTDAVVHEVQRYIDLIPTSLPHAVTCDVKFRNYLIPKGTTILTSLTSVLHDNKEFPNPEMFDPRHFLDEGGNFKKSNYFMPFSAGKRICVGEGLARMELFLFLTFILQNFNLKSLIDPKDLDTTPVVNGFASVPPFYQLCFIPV
Chain of CYP2B6 (P20813 whole entry): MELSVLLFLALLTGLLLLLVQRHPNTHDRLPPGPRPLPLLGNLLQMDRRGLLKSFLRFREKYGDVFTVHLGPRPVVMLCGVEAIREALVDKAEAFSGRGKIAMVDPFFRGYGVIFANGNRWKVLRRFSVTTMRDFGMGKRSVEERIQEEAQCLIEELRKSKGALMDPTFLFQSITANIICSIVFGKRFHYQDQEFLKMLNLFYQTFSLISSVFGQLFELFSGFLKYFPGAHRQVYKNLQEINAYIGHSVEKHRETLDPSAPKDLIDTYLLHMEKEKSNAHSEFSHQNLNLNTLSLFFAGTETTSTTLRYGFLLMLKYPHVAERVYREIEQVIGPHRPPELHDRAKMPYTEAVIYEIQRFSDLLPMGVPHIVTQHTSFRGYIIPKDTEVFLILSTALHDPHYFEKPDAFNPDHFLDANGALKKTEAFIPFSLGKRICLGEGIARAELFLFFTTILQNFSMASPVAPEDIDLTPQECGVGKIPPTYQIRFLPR
Chain of CYP2D6 (P10635 whole entry): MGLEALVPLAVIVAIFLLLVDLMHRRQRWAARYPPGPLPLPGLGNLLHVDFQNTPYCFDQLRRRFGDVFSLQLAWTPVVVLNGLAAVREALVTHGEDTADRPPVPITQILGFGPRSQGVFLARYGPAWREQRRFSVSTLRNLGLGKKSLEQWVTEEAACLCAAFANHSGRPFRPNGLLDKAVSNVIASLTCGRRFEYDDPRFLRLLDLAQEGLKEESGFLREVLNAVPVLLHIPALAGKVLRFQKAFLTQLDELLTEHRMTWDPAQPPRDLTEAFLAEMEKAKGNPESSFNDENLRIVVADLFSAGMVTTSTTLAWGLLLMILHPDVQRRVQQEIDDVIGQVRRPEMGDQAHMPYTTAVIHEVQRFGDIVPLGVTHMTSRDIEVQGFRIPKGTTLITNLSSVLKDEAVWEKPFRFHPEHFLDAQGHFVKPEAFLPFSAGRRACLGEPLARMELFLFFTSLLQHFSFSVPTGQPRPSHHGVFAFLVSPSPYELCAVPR
Chain of CYP2C9 (P11712 whole entry): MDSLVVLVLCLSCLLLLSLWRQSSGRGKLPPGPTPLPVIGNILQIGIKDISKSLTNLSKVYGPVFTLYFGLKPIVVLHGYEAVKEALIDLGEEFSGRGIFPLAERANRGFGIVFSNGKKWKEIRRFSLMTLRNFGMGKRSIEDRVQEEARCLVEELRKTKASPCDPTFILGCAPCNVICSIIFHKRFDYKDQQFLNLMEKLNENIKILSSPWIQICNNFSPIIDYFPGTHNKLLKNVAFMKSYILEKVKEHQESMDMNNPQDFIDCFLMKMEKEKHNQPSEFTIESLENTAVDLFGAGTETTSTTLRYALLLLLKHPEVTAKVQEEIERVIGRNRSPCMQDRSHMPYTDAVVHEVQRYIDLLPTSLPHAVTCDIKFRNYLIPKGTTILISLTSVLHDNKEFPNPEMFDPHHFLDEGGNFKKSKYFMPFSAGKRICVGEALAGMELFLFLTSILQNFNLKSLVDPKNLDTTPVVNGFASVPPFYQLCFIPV
Chain of CYP1A2 (Homo sapiens, UniProt P05177) (P05177 whole entry): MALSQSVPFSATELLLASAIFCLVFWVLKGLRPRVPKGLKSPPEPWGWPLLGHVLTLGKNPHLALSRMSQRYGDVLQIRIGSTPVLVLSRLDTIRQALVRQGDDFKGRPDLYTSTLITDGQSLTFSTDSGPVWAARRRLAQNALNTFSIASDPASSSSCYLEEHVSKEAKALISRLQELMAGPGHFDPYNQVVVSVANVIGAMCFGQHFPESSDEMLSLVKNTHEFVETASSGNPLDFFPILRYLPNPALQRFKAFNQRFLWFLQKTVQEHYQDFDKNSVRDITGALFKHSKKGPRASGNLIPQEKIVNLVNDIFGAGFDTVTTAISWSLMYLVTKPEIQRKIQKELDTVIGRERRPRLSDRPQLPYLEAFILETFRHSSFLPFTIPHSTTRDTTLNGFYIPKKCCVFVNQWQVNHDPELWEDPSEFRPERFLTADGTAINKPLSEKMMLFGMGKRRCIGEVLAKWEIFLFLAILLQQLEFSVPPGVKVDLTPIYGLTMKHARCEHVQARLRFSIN
Chain of CYP2C8 (P10632 whole entry): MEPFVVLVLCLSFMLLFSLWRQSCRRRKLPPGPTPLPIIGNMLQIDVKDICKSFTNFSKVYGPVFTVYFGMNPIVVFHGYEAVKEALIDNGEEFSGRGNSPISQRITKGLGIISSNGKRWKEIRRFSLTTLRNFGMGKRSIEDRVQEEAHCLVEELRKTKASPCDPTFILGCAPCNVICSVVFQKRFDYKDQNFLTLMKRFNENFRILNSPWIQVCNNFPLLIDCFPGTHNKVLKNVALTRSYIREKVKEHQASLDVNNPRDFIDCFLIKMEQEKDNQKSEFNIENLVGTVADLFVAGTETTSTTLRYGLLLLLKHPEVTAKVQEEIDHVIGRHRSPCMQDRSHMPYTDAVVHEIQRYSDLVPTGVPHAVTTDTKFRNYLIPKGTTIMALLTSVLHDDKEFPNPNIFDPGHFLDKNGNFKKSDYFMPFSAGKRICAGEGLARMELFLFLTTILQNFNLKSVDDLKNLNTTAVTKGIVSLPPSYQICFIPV

Cc1cc(-c2cncc([C@@H](O)C(F)(F)F)c2)nc2c1C(=O)N(c1cnn(CC(F)F)c1)C2(C)C [Compound 1, (R)-6-(1-(2,2-difluoroethyl)-1H-pyrazol-4-yl)-4,7,7-trimethyl-2-(5-(2,2,2-trifluoro-1-hydroxyethyl)pyridin-3-yl)-6,7-dihydro-5H-pyrrolo[3,4-b]pyridin-5-one]
IC50 (CYP2D6): 64 µM
IC50 (CYP2C19): 21 µM
IC50 (CYP2B6): 4 µM
IC50 (CYP2C8): 7 µM
IC50 (CYP2C9): 32 µM
IC50 (CYP1A2 [1]): 7 µM
CYP1A2 mRNA message (CYP1A2 [2]; 0.5 μM, lot 8123): 0.6 (0.6)* fold change
Phenacetin O-Dealkylation (CYP1A2 [2]; 0.5 μM, lot 8123): 0.6 (0.6)* fold change
CYP1A2 mRNA message (CYP1A2 [2]; 0.5 μM, lot LMP): 0.6 fold change
Phenacetin O-Dealkylation (CYP1A2 [2]; 0.5 μM, lot LMP): 0.7 fold change
CYP1A2 mRNA message (CYP1A2 [2]; 0.5 μM, lot YOW): 0.5 fold change
Phenacetin O-Dealkylation (CYP1A2 [2]; 0.5 μM, lot YOW): 1.1 fold change
CYP1A2 mRNA message (CYP1A2 [2]; 1.0 μM, lot 8123): 0.5 (0.5) fold change
Phenacetin O-Dealkylation (CYP1A2 [2]; 1.0 μM, lot 8123): 0.5 (0.5) fold change
CYP1A2 mRNA message (CYP1A2 [2]; 1.0 μM, lot LMP): 0.6 fold change
Phenacetin O-Dealkylation (CYP1A2 [2]; 1.0 μM, lot LMP): 0.8 fold change
CYP1A2 mRNA message (CYP1A2 [2]; 1.0 μM, lot YOW): 0.4 fold change
Phenacetin O-Dealkylation (CYP1A2 [2]; 1.0 μM, lot YOW): 1.1 fold change
CYP1A2 mRNA message (CYP1A2 [2]; 5.0 μM, lot 8123): 0.5 fold change
Phenacetin O-Dealkylation (CYP1A2 [2]; 5.0 μM, lot 8123): 0.8 fold change
CYP1A2 mRNA message (CYP1A2 [2]; 5.0 μM, lot LMP): 0.7 fold change
Phenacetin O-Dealkylation (CYP1A2 [2]; 5.0 μM, lot LMP): 0.9 fold change
CYP1A2 mRNA message (CYP1A2 [2]; 5.0 μM, lot YOW): 0.6 fold change
Phenacetin O-Dealkylation (CYP1A2 [2]; 5.0 μM, lot YOW): 1.1 fold change
CYP1A2 mRNA message (CYP1A2 [2]; 10.0 μM, lot 8123): 1.2 fold change
Phenacetin O-Dealkylation (CYP1A2 [2]; 10.0 μM, lot 8123): 0.7 fold change
CYP1A2 mRNA message (CYP1A2 [2]; 10.0 μM, lot LMP): 0.8 fold change
Phenacetin O-Dealkylation (CYP1A2 [2]; 10.0 μM, lot LMP): 1.0 fold change
CYP1A2 mRNA message (CYP1A2 [2]; 10.0 μM, lot YOW): 1.3 fold change
Phenacetin O-Dealkylation (CYP1A2 [2]; 10.0 μM, lot YOW): 1.2 fold change
CYP1A2 mRNA message (CYP1A2 [2]; 20.0 μM, lot 8123): 2.6 fold change
Phenacetin O-Dealkylation (CYP1A2 [2]; 20.0 μM, lot 8123): 1.2 fold change
CYP1A2 mRNA message (CYP1A2 [2]; 20.0 μM, lot LMP): 0.7 fold change
Phenacetin O-Dealkylation (CYP1A2 [2]; 20.0 μM, lot LMP): 1.1 fold change
CYP1A2 mRNA message (CYP1A2 [2]; 20.0 μM, lot YOW): 0.8 fold change
Phenacetin O-Dealkylation (CYP1A2 [2]; 20.0 μM, lot YOW): 1.3 fold change
Phenacetin O-Dealkylation (CYP1A2 [2]; 30.0 μM, lot 8123): 1.3 (NR^2) fold change
CYP1A2 mRNA message (CYP1A2 [2]; 30.0 μM, lot LMP): 1.4 fold change
Phenacetin O-Dealkylation (CYP1A2 [2]; 30.0 μM, lot LMP): 1.1 fold change
Phenacetin O-Dealkylation (CYP1A2 [2]; 30.0 μM, lot YOW): 1.5 (NR^2) fold change
change in CYP1A2 activity and mRNA levels, % of the positive control (CYP1A2 [2]; all three hepatocyte lots, 48 hour exposure): less than 20%
